Test: gradient 5% acetonitrile 3 min, to 50% in 2 min, to 85% in 15 min, held 3 min, 100 µL/min
Details: column: Zorbax Extend-C18 2.1 x 50 mm; eluents: water / acetonitrile, 0.1% formic acid
Method in brief: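 The system's dead and dwell volumes were 40 μL and 900 μL, with a Zorbax Extend-C18 column (2.1 × 50 mm, 1.8 μm) run at 100 μL/min in water and acetonitrile containing 0.1% formic acid each. Pure standards were analyzed in mixtures of ~100 molecules by HPLC–quadrupole time-of-flight mass spectrometry in positive and negative ionization mode. Retention time was assigned from computationally picked, manually inspected adduct peaks.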
`COc1ccc(CNS(=O)(=O)c2cc3c(s2)CCN(C(=O)C2CC2)C3)cc1` showed an RP-LC retention time of 812 s. `Cc1cc(C)cc(Oc2nccn3c(=O)n(CC(=O)NC4CCCCC4)nc23)c1` showed an RP-LC retention time of 905 s. With `COC(=O)c1ccc(OC)c(Cn2cnc3c(-c4ccccc4)csc3c2=O)c1` the RP-LC retention time was 988 s. Molecule `CCOc1ccc(NC(=O)Cn2cccc(-c3nc(-c4ccc(Br)cc4)no3)c2=O)cc1` has an RP-LC retention time of 1020 s. For `O=C(NC1CCCCCC1)C1CCCN(c2ncnc3c2oc2ccccc23)C1` (centres undefined), the RP-LC retention time was 815 s. `O=C(c1cc(C2CC2)n(C2CCS(=O)(=O)C2)n1)N1CCc2ccccc21` (centres undefined) gave an RP-LC retention time of 768 s. Molecule `O=C(Cc1cc(-c2ccc(F)cc2)on1)NCCc1c[nH]c2ccccc12` has an RP-LC retention time of 824 s. `Cc1ccc(O)c(CNC2CCN(c3ccc(C(=O)NC4CC4)cn3)C2)c1` (centres undefined) showed an RP-LC retention time of 560 s. Molecule `CCN1C(=O)COc2ccc(-c3csc(NC(=O)c4ccc(C)cc4)n3)cc21` has an RP-LC retention time of 1040 s. In the case of `Cc1c(C(=O)NCC(C)C)c(C)n2cnn(CC(=O)NCCc3ccccc3)c(=O)c12`, the RP-LC retention time is reported as 743 s. With `Cc1cc(OCC(=O)NCc2ccco2)nc(N2CCCCCC2)n1` the RP-LC retention time was 572 s. Molecule `COc1cccc(N2C(=O)C3N=NN(c4ccc(C)c(F)c4)C3C2=O)c1` (centres undefined) has an RP-LC retention time of 1110 s. With `CCCNc1cc(N2CCC(CCC(=O)NC3CCN(Cc4ccccc4)CC3)CC2)ncn1` the RP-LC retention time was 572 s. Molecule `CCc1ccc(-c2ccc(-n3nc(C)c(S(=O)(=O)NC4CC4)c3C)nn2)cc1` has an RP-LC retention time of 1070 s. Molecule `CCOc1ccc2ncc(S(=O)(=O)c3ccc(C)c(C)c3)c(N3CCN(CC)CC3)c2c1` has an RP-LC retention time of 693 s. In the case of `COc1ccc(-c2noc(C3CCCN3C(=O)c3cc(F)cc(F)c3)n2)cc1OC` (centres undefined), the RP-LC retention time is reported as 937 s. With `Cc1ccccc1C(C(=O)NC1CCCCC1)N(C(=O)Cn1ccnc1C)c1cccc(F)c1` (centres undefined) the RP-LC retention time was 895 s. For `Cc1ccc(-c2nc(C3CC(=O)N(C4CCCCC4)C3)no2)cn1` (centres undefined), the RP-LC retention time was 771 s. `CCOc1ccc(-c2cn3ccn(-c4ccc(C)c(C)c4)c(=O)c3n2)cc1` showed an RP-LC retention time of 949 s. With `O=C(NCc1ccccc1)c1ccc2ncnc(N3CCCC3)c2c1` the RP-LC retention time was 613 s. For `O=C(NCc1ccccc1Cl)C1CCN(C(=O)c2sccc2-n2cccc2)CC1`, the RP-LC retention time was 863 s. In the case of `CCCn1cc(C(=O)Nc2ccc(F)cc2C)c2cccnc21`, the RP-LC retention time is reported as 882 s. Work on `Cc1cc(NCCCCCCCNc2cc(C)nc3cc(N)ccc23)c2ccc(N)cc2n1` yielded an RP-LC retention time of 612 s. `COc1ccc(OC)c2sc(N3CCN(S(=O)(=O)c4cccs4)CC3)nc12` showed an RP-LC retention time of 896 s. `Cc1ccc(N2CCN(CC(O)COc3ccccc3)CC2)cc1` (centres undefined) showed an RP-LC retention time of 698 s. Work on `CCOc1ccccc1CNC(=O)c1ccc2[nH]c3c(c2c1)CN(C(C)=O)CC3` yielded an RP-LC retention time of 649 s. `CCN1CCN(c2nc(F)c3c(c2F)S(=O)(=O)CCN3CCOC)CC1` showed an RP-LC retention time of 581 s. `Cc1nc(-c2cccc(-c3noc(COc4ccc(Cl)cc4)n3)c2)cs1` gave an RP-LC retention time of 1280 s. In the case of `Cc1ccc(CNC(=O)N2CCc3c(c(-c4nc(C5CC5)no4)nn3C)C2)cc1`, the RP-LC retention time is reported as 828 s. `CC1CCCC(NC(=O)c2cc(=O)[nH]c3ccc(Br)cc23)C1C` (centres undefined) gave an RP-LC retention time of 869 s. With `O=C(NCCC1=CCCCC1)C1CCCN(c2ccnc(-c3ccc(F)cc3)n2)C1` (centres undefined) the RP-LC retention time was 752 s. For `Cc1ccc(Cl)cc1N1C(=O)CN(S(C)(=O)=O)CC1(C)C(=O)NC1CCCCCCC1` (centres undefined), the RP-LC retention time was 980 s. For `O=C(C1CCN(c2cn[nH]c(=O)c2)C1)N1CCCC1` (centres undefined), the RP-LC retention time was 571 s. Molecule `CC(C)n1c(=O)oc2cc(-c3noc(CCc4ccccc4)n3)ccc21` has an RP-LC retention time of 1140 s. `Cn1cccc1C(=O)C(=O)Nc1cccc(Br)c1` showed an RP-LC retention time of 1040 s. `CCCc1nnsc1C(=O)Nc1nnc(Cc2ccc(F)cc2)o1` showed an RP-LC retention time of 890 s. `O=C(NCCCN1CCN(c2ccc(F)cc2)CC1)C1CCCN(c2nc3cccnc3s2)C1` (centres undefined) gave an RP-LC retention time of 645 s. In the case of `Cc1ccc(-c2csc(NC(=O)CC(C)C)n2)c(C)c1`, the RP-LC retention time is reported as 1090 s. Work on `CCOc1ccc(CNC(=O)C2CCCN(c3cc(=O)n(C)c(=O)n3CC)C2)cc1OCC` (centres undefined) yielded an RP-LC retention time of 791 s. With `Cc1nn(C(=O)C(C)(C)C)c(C)c1S(=O)(=O)N1CCCC1` the RP-LC retention time was 1180 s. Work on `CCCCN(C)c1nc(-c2ccc(C)cc2)nc2ccccc12` yielded an RP-LC retention time of 819 s. Molecule `CCN1CCN(c2c(C(=O)c3ccccc3)cnc3cc4c(cc23)OCO4)CC1` has an RP-LC retention time of 563 s. For `CCOc1ccc(-c2csc(Nc3ccccn3)n2)cc1`, the RP-LC retention time was 910 s. `CC(C)N1C(=O)c2cccnc2Sc2cc(NC(=O)COc3ccccc3)ccc21` gave an RP-LC retention time of 889 s.
